Measured values from US11345702B1 (Myoforte Therapeutics, Inc., priority 2020, dated 2022).
Several values for one entry are separate records, joined by “and”; a condition that tells them apart may be missing. Equal values may be shown once.

The compounds below were run against 15-PGDH/HPGD (Homo sapiens (Human), UniProt P15428) (assay: hPGDH inhibitor screening biochemical assay). Conditions: read-out: hPGDH: Average IC50.
Description: A hydroxyprostaglandin dehydrogenase inhibition screening biochemical assay can be performed to assess the synthesized inhibitors provided herein. Provided herein is an exemplary biochemical assay for hPGDH inhibitor screening.
The in vitro biochemical assay can be performed in white, 384 plates in total 20 μl reaction volume consisting of 10 nM of 15-PGDH/HPGD (R&D System #5660-DH), 15 μM Prostaglandin E2 (Sigma, Cat #P5640-10MG) and 0.25 mM (3-Nicotinamide adenine dinucleotide sodium salt (Sigma, Cat #N0632-5G) made in reaction buffer (50 mM Tris-HCl, pH 7.5, 0.01% Tween 20) at 10-point dose response curve for test/tool compounds. Briefly, 5 μl (4×) of compounds solution and 5 μl (final concentration, 10 nM) of enzyme solution is added to white 384 well plates and incubated for 10 mins at 37° C. 5 μl (4×) of Prostaglandin E2 and 5 μl (4×) of β-Nicotinamide adenine dinucleotide sodium salt is added to the wells and incubated for 10 mins at room temperature. Fluorescence is recorded at ex/em=340 nm/485 nm. The percentage (%) inhibition of enzyme activity was determined relative to positive control (1% DMSO) and IC50 was calculated using GraphPad prism software (four parameter-variable slope equation).

15-PGDH/HPGD, sequence (P15428 whole entry): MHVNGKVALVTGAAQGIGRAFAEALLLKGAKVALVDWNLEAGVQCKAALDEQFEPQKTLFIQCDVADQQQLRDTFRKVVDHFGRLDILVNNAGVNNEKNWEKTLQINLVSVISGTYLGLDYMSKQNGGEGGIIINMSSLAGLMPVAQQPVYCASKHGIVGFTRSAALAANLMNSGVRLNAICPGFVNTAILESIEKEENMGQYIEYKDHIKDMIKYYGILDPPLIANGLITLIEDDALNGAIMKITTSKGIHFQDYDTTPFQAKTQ

| SMILES | IC50 |
| --- | --- |
| COc1ccc(-n2ccc3cc(C(=O)N4C[C@H](C)C[C@H](C)C4)cnc32)cc1 [MF-DH-329, ((3R,5S)-3,5-dimethylpiperidin-1-yl)(1-(4-methoxyphenyl)-1H-pyrrolo[2,3-b]pyridin-5-yl)methanone] | < 100 nM |
| COc1ccc(-n2c(CCC(C)(C)O)cc3cc(C(=O)N4CCCCC4)cnc32)cc1 [MF-DH-330, (2-(3-hydroxy-3-methylbutyl)-1-(4-methoxyphenyl)-1H-pyrrolo[2,3-b]pyridin-5-yl)(piperidin-1-yl)methanone] | < 100 nM |
| COc1ccc(Cn2cc3cc(-n4ccc5cc(C(=O)N6CCCCC6)cnc54)ccc3n2)cc1 [MF-DH-340] | < 100 nM |
| N#Cc1cccc(-n2ccc3cc(C(=O)N4CCC(F)CC4)cnc32)c1 [MF-DH-344] | < 100 nM |
| NC(=O)c1cccc(-n2ccc3cc(C(=O)N4CCC(F)CC4)cnc32)c1 [MF-DH-345] | < 100 nM |
| O=C(c1cnc2c(ccn2-c2ccc(CO)cc2)c1)N1CCC(F)CC1 [MF-DH-347] | < 100 nM |
| O=C(c1cnc2c(ccn2-c2cccc(CO)c2)c1)N1CCC(F)CC1 [MF-DH-348] | < 100 nM |
| NC(=O)c1cncc(-n2ccc3cc(C(=O)N4CCC(F)CC4)cnc32)c1 [MF-DH-351] | < 100 nM |
| NC(=O)c1cncc(-n2ccc3cc(C(=O)N4CCCCC4)cnc32)c1 [MF-DH-361] | < 100 nM |
| CNC(=O)c1cncc(-n2ccc3cc(C(=O)N4CCCCC4)cnc32)c1 [MF-DH-362] | < 100 nM |
| CN(C)C(=O)c1cncc(-n2ccc3cc(C(=O)N4CCCCC4)cnc32)c1 [MF-DH-363] | < 100 nM |
| N#Cc1cncc(-n2ccc3cc(C(=O)N4CCCCC4)cnc32)c1 [MF-DH-364] | < 100 nM |
| CNC(=O)c1ccc(-n2ccc3cc(C(=O)N4CCCCC4)cnc32)cc1 [MF-DH-368] | < 100 nM |
| CC(C)(O)c1ccc(-n2ccc3cc(C(=O)N4CCCCC4)cnc32)cc1 [MF-DH-371] | < 100 nM |
| CC(C)(O)c1cccc(-n2ccc3cc(C(=O)N4CCCCC4)cnc32)c1 [MF-DH-375] | 100 to 1000 nM |
| COc1ccc(-n2ccc3c(NCc4ccccc4)c(C(=O)N4CCCCC4)cnc32)cc1 [MF-DH-385, (4-(benzylamino)-1-(4-methoxyphenyl)-1H-pyrrolo[2,3-b]pyridin-5-yl) (piperidin-1-yl) methanone] | 100 to 1000 nM |
| N#Cc1ccc(-n2cc(Cl)c3cc(C(=O)N4CCC(F)CC4)cnc32)cc1 [MF-DH-388] | < 100 nM |
| N#Cc1ccc(-n2ccc3cc(C(=O)N4CCCCC4)cnc32)cn1 [MF-DH-389] | < 100 nM |
| Cc1cc(-n2ccc3cc(C(=O)N4CCCCC4)cnc32)cnc1N [MF-DH-392] | < 100 nM |

| SMILES | IC50 |
| --- | --- |
| Nc1ncc(-n2ccc3cc(C(=O)N4CCCCC4)cnc32)cc1Cl [MF-DH-393] | < 100 nM |
| NC(=O)c1ccc(-n2ccc3cc(C(=O)N4CCC(F)(F)CC4)cnc32)cc1 [MF-DH-394] | < 100 nM |
| Cc1nc(-c2cccc(-n3ccc4cc(C(=O)N5CCCCC5)cnc43)c2)no1 [MF-DH-402] | < 100 nM |
| N#Cc1ccc(-n2ccc3cc(C(=O)N4C[C@H](F)C[C@H](F)C4)cnc32)cc1 [MF-DH-417, 4-(5-((3R,5S)-3,5-difluoropiperidine-1-carbonyl)-1H-pyrrolo[2,3-b]pyridin-1-yl)benzonitrile] | 100 to 1000 nM and < 100 nM |
| CCNC(=O)c1ccc(-n2ccc3cc(C(=O)N4CCC(F)(F)CC4)cnc32)cc1 [MF-DH-418] | < 100 nM |
| O=C(NC1CNC1)c1ccc(-n2ccc3cc(C(=O)N4CCC(F)(F)CC4)cnc32)cc1 [MF-DH-420] | < 100 nM |
| O=C(O)c1cncc(-n2ccc3cc(C(=O)N4CCC(F)(F)CC4)cnc32)c1 [MF-DH-425, 5-(5-(4,4-difluoropiperidine-1-carbonyl)-1H-pyrrolo[2,3-b]pyridin-1-yl)nicotinic acid] | < 100 nM |
| O=C(O)Cc1ccc(-n2ccc3cc(C(=O)N4CCC(F)(F)CC4)cnc32)cc1 [MF-DH-426, 2-(4-(5-(4,4-difluoropiperidine-1-carbonyl)-1H-pyrrolo[2,3-b]pyridin-1-yl)phenyl)acetic acid] | < 100 nM |
| O=C(c1cnc2c(ccn2-c2ccc(C3(C(=O)O)CC3)cc2)c1)N1CCC(F)(F)CC1 [MF-DH-427, 1-(4-(5-(4,4-difluoropiperidine-1-carbonyl)-1H-pyrrolo[2,3-b]pyridin-1-yl)phenyl)cyclopropane-1-carboxylic acid] | 100 to 1000 nM |
| O=C(NC1(C(=O)O)CC1)c1ccc(-n2ccc3cc(C(=O)N4CCC(F)(F)CC4)cnc32)cn1 [MF-DH-430, 1-(5-(5-(4,4-difluoropiperidine-1-carbonyl)-1H-pyrrolo[2,3-b]pyridin-1-yl)picolinamido)cyclopropane-1-carboxylic acid] | < 100 nM |
| CC(C)(CC(=O)O)NC(=O)c1ccc(-n2ccc3cc(C(=O)N4CCC(F)(F)CC4)cnc32)cc1 [MF-DH-431] | < 100 nM |
| O=C(O)[C@@H]1CCCN1C(=O)c1ccc(-n2ccc3cc(C(=O)N4CCC(F)(F)CC4)cnc32)cc1 [MF-DH-432] | < 100 nM |
| O=C(O)c1ccc(-n2ccc3cc(C(=O)N4CCCCC4)cnc32)cc1 [MF-DH-433, 4-(5-(piperidine-1-carbonyl)-1H-pyrrolo[2,3-b]pyridin-1-yl)benzoic acid] | < 100 nM |
| N#Cc1ccc(-n2ccc3cc(C(=O)N4CCC(F)(F)CC4)cnc32)nc1 [MF-DH-440] | 100 to 1000 nM |
| N#Cc1ccc(-n2cnc3cc(C(=O)N4CC(Cl)C4)cnc32)cc1 [MF-DH-443] | < 100 nM |
| CC(C)(O)CCc1cc2cc(C(=O)N3CCC(F)(F)CC3)cnc2n1-c1ccc(C#N)cc1 [MF-DH-444, 4-(5-(4,4-difluoropiperidine-1-carbonyl)-2-(3-hydroxy-3-methylbutyl)-1H-pyrrolo[2,3-b]pyridin-1-yl)benzonitrile] | < 100 nM |
| N#Cc1ccc(-n2c(CCC(N)=O)cc3cc(C(=O)N4CCC(F)(F)CC4)cnc32)cc1 [MF-DH-446, 3-(1-(4-cyanophenyl)-5-(4,4-difluoropiperidine-1-carbonyl)-1H-pyrrolo[2,3-b]pyridin-2-yl)propanamide] | 100 to 1000 nM |
| O=C(c1cnc2c(ccn2-c2ccc(-c3noc(=O)[nH]3)nc2)c1)N1CCC(F)(F)CC1 [MF-DH-456, 3-(5-(5-(4,4-difluoropiperidine-1-carbonyl)-1H-pyrrolo[2,3-b]pyridin-1-yl)pyridin-2-yl)-1,2,4-oxadiazol-5(4H)-one] | < 100 nM |
| N#Cc1ccc(-n2ccc3cc(C(=O)N4CCC(F)CC4)ncc32)cc1 [MF-DH-463, 4-(5-(4-fluoropiperidine-1-carbonyl)-1H-pyrrolo[2,3-c]pyridin-1-yl)benzonitrile] | ≥ 1000 nM |

The next lines start with the values.

| IC50 | SMILES |
| --- | --- |
| < 100 nM | Nc1ccc(-n2ccc3cc(C(=O)N4CCCCC4)cnc32)cn1 [MF-DH-336] |
| < 100 nM | NC(=O)c1ccc(-n2ccc3cc(C(=O)N4CCC(F)CC4)cnc32)cc1 [MF-DH-343] |
| < 100 nM | CN(C)c1ccc(-n2ccc3cc(C(=O)N4CCC(F)CC4)cnc32)cc1 [MF-DH-346] |
| < 100 nM | NC(=O)c1ccc(-n2ccc3cc(C(=O)N4CCC(F)CC4)cnc32)cn1 [MF-DH-355] |
| < 100 nM | CN(C)c1ccc(-n2ccc3cc(C(=O)N4CCCCC4)cnc32)cn1 [MF-DH-366] |
| < 100 nM | COCCNC(=O)c1ccc(-n2ccc3cc(C(=O)N4CCCCC4)cnc32)cc1 [MF-DH-367] |
| < 100 nM | CN(C)C(=O)c1ccc(-n2ccc3cc(C(=O)N4CCCCC4)cnc32)cc1 [MF-DH-369] |
| 100 to 1000 nM | CC(N)c1cccc(-n2ccc3cc(C(=O)N4CCCCC4)cnc32)c1 (centres unmarked) [MF-DH-376, (1-(3-(1-aminoethyl)phenyl)-1H-pyrrolo[2,3-b]pyridin-5-yl)(piperidin-1-yl)methanone] |
| < 100 nM | NC(=O)c1ncc(-n2ccc3cc(C(=O)N4CCCCC4)cnc32)cn1 [MF-DH-384] |
| < 100 nM | N#Cc1ncc(-n2ccc3cc(C(=O)N4CCCCC4)cnc32)cn1 [MF-DH-397] |
| < 100 nM | O=C(NC1CCNCC1)c1ccc(-n2ccc3cc(C(=O)N4CCC(F)(F)CC4)cnc32)cc1 [MF-DH-419] |
| < 100 nM | N#Cc1ccc(-n2ccc3cc(C(=O)N4CCC(F)(F)CC4)cnc32)cc1 [MF-DH-439] |
| < 100 nM | N#Cc1ccc(-n2ccc3cc(C(=O)N4CCC(F)(F)CC4)cnc32)cc1O [MF-DH-441] |
| < 100 nM | N#Cc1ccc(-n2cnc3cc(C(=O)N4CCC(F)(F)CC4)cnc32)cc1 [MF-DH-442] |
| ≥ 1000 nM | N#Cc1ccc(-n2ccc3cc(C(=S)N4CCC(F)(F)CC4)cnc32)cc1 [MF-DH-449, 4-(5-(4,4-difluoropiperidine-1-carbonothioyl)-1H-pyrrolo[2,3-b]pyridin-1-yl)benzonitrile] |
| < 100 nM | NC(=O)[C@@H]1CCCN1C(=O)c1ccc(-n2ccc3cc(C(=O)N4CCC(F)(F)CC4)cnc32)cc1 [MF-DH-450, (S)-1-(4-(5-(4,4-difluoropiperidine-1-carbonyl)-1H-pyrrolo[2,3-b]pyridin-1-yl)benzoyl)pyrrolidine-2-carboxamide] |
| < 100 nM | O=C(c1ccc(-n2ccc3cc(C(=O)N4CCC(F)(F)CC4)cnc32)cc1)N(CCO)CCO [MF-DH-451] |
| ≥ 1000 nM | N#Cc1ccc(-n2ccc3nc(C(=O)N4CCC(F)CC4)ccc32)cc1 [MF-DH-462, 4-(5-(4-fluoropiperidine-1-carbonyl)-1H-pyrrolo[3,2-b]pyridin-1-yl)benzonitrile] |
